Reference: patent US20030092637A1, “Novel compounds” (priority 2000, published 2003)

Test system: transformed human vascular endothelial cells (ECV cells)
Test: Cellular growth assay (crystal violet), ECV cells
Type: cell-based
Description: Human embryonic lung fibroblasts (HFL-1 cells) and transformed endothelial cells (ECV cells) were obtained. Monolayer cultures were maintained on plastic in Eagle's MEM (Life Technologies, Ltd, Renfrewshire, UK). The medium was supplemented with 10% FCS (In Vitro AB, Stockholm, Sweden), 2 mM L-glutamine (ICN Biochemicals), penicillin (100 units/ml) and streptomycin (100 μg/ml) Cells were regularly checked for mycoplasma using GEN-PROBE Rapid detection system (Skafte & Claesson, Mölndal, Sweden).
In brief, cells were harvested by trypsinisation and seeded into 96-well microculture plates at 3000-5000 cells/well in Ham's F-12 medium (Sigma) supplemented with insulin (10 ng/ml), transferrin (25 ng/ml) and 10% FCS. After 4 h of plating, the cells were serum-starved for 24 h. […] Controls without growth factor and controls with different concentrations of DMSO were included. After 72, 96 and 120 h of growth, cells were fixed in glutaraldehyde, and cell nuclei were stained with crystal violet (Merck, Darmstadt, Germany). After washing and cell lysis for 24 h in 1% Triton X-100, the amount of bound dye was measured at 595 nm in a microplate photometer (Titertek multiscan). Results were corrected for DMSO effects.

Structure (SMILES): Cc1ccc(C(=O)Nc2ccc(S(=O)(=O)O)c3cc(S(=O)(=O)O)cc(S(=O)(=O)O)c23)cc1NC(=O)c1cccc(NC(=O)Nc2cccc(C(=O)Nc3cc(C(=O)Nc4ccc(S(=O)(=O)O)c5cc(S(=O)(=O)O)cc(S(=O)(=O)O)c45)ccc3C)c2)c1 [suramin]
- inhibition at 200 µM (Homo sapiens, Endothelial cell, 0.2 mM suramin, untreated cells as reference): 20%

Structure (SMILES): Oc1ccc2cc(O[C@@H]3OC[C@@H](O)[C@H](O)[C@H]3O)ccc2c1 [Xyl-2-Nap-6-OH, 6-hydroxy-2-naphthalenyl-β-D-xylopyranoside]
- inhibition of growth of ECV cells (0.05 mM Xyl-2-Nap-6-OH, untreated cells as reference): 9%
- inhibition of growth of ECV cells (Xyl-2-Nap-6-OH alone (concentration not restated; 0.2 mM in the compared combination)): 31%

Structure (SMILES): NCCC[C@](N)(C(=O)O)C(F)F [DFMO, α-difluoromethylornithine]
- inhibition at 5000 µM (Homo sapiens, Endothelial cell, 5 mM DFMO only, cells dependent on 1 μM spermin): 5%
